Measured values published in patent US20240381872A1, “SUBSTITUTED 2,3-DIHYDRO[1,3]THIAZOLO[4,5-B]PYRIDINES, SALTS THEREOF AND THEIR USE AS HERBICIDALLY ACTIVE SUBSTANCES” (BAYER AKTIENGESELLSCHAFT, priority 2021, published 2024).

Columns and labels:
Format in all cases: in vivo
[1] = tested on: Abutilon theophrasti (ABUTH); test: Herbicidal pre-emergence action, section C (Table C1); details: application rate 320 g/ha, visual grading after ca. 3 weeks vs untreated controls; for pest or weed control at 320 g/ha: Abutilon theophrasti, pre-emergence, 504 h, read-out: pre-emergence activity against ABUTH in %
From the text: (§1) Seeds of mono- and dicotyledonous weed plants and crop plants were sown, in plastic or organic planting pots, in sandy loam and covered with soil. The compounds according to the invention, formulated in the form of wettable powders (WP) or as emulsifiable concentrates (EC), were applied to the surface of the covering soil as aqueous suspension or emulsion, with the addition of 0.5% of an additive, at an application rate of 600 l of water/ha (converted). Following treatment, the pots were placed in a greenhouse and kept under optimum growth conditions for the test plants. The visual grading of the damage to the test plants was carried out after ca. 3 weeks in comparison to untreated controls (herbicidal effect in percent (%): 100% effect=plants have died off, 0% effect=as control plants).

[2] = tested on: Triticum aestivum (TRZAS); test: Pre-emergence effects on crop plants, section D (Table D2); details: visual grading after ca. 3 weeks
Summary of the method: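 Seeds sown in sandy loam and covered with soil; WP or EC formulations applied to the covering soil surface as aqueous suspension/emulsion with 0.5% additive at 600 l water/ha, at 320 g/ha or below. Greenhouse growth; visual damage scored after ca. 3 weeks versus untreated controls (0% = as control, 100% = dead).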

Lolium rigidum (LOLRI) [3] = test: Herbicidal pre-emergence action, section C (Table C5); details: visual grading after ca. 3 weeks; for pest or weed control at 320 g/ha / pre-emergence activity against LOLRI in %: application rate 320 g/ha
From the text: as §1

Lolium rigidum (LOLRI) [4] = test: Herbicidal pre-emergence action, section A (Table A5); details: visual grading after ca. 3 weeks vs untreated controls
Summary of the method: (§2)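 Visual scoring at approximately 3 weeks, relative to untreated pots, gave percent effect after compounds in WP or EC form were sprayed onto covering soil of sown seeds (sandy loam) in water with 0.5% additive at 600 l/ha, then kept in greenhouse.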

Glycine max (GLXMA) = test: Post-emergence effects on crop plants, section F (Table F4); details: for percent crop plant damage at 320 g/ha / percent crop plant damage at 80 g/ha: Glycine max, 504 h, read-out: post-emergence activity against GLXMA in %; for percent crop plant damage at 320 g/ha: application rate 320 g/ha; for percent crop plant damage at 80 g/ha / post-emergence activity against GLXMA in %: application rate 80 g/ha; for post-emergence activity against GLXMA in %: crop plant damage
Summary of the method: (§3)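 Post-emergence greenhouse test: crops grown 2 to 3 weeks in sandy loam, sprayed at 320 g/ha or less in 600 l water/ha with 0.5% additive. Injury rated visually as percent relative to controls roughly three weeks later.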

Veronica persica (VERPE) = test: Herbicidal pre-emergence action, section A (Table A10); details: for pest or weed control at 320 g/ha: application rate 320 g/ha
Summary of the method: as §2

Zea mays (ZEAMX) = test: Post-emergence effects on crop plants, section F (Table F1); details: application rate 320 g/ha; for percent crop plant damage (phytotoxicity) on Zea mays, post-emergence at 320 g/ha: 504 h, read-out: post-emergence activity against ZEAMX in %; for post-emergence activity against ZEAMX in %: crop plant damage
Summary of the method: as §3

Poa annua (POAAN) = test: Herbicidal post-emergence action, section B (Table B7); details: visual rating about 3 weeks after treatment vs untreated controls
Summary of the method: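 Scores are visual % activity relative to untreated plants (0% = like control, 100% = dead), taken about 3 weeks after spraying. Compounds, as WP or EC in water with 0.5% additive at 600 L/ha, went onto one-leaf-stage weeds grown from seed in sandy loam under greenhouse conditions.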

[5] = tested on: Abutilon theophrasti (ABUTH); test: Herbicidal post-emergence action, section E (Table E1); details: application rate 320 g/ha, assessed visually after ca. 3 weeks
From the text: Seeds of mono- and dicotyledonous weed plants and crop plants were sown, in plastic or organic planting pots, in sandy loam, covered with soil and grown in a greenhouse under controlled growth conditions. 2 to 3 weeks after sowing, the test plants were sprayed in the single-leaf stage. The compounds according to the invention, formulated in form of wettable powders (WP) or as emulsifiable concentrates (EC), were sprayed onto the green plant parts as aqueous suspension or emulsion, with the addition of 0.5% of an additive, at an application rate of 600 l of water/ha (converted). The test plants were placed in the greenhouse for ca. 3 weeks under optimum growth conditions, and then the effect of the preparations was assessed visually in comparison with untreated controls (herbicidal effect in percent (%): 100% effect=plants have died off, 0% effect=as control plants).

[6] = Lolium rigidum, pre-emergence, 504 h, application rate 1280 g/ha, read-out: pre-emergence activity against LOLRI in %
[7] = Veronica persica, 504 h, read-out: pre-emergence activity against VERPE in %
[8] = Lolium rigidum, pre-emergence, 504 h, read-out: pre-emergence activity against LOLRI in %

## Cc1cc2c(nc1-c1ccccc1Cl)NCS2 [Example I-049, 5-(2-chlorophenyl)-6-methyl-2,3-dihydro[1,3]thiazolo[4,5-b]pyridine]
[1]
  pest or weed control at 320 g/ha: 80%
[2]; application rate 80 g/ha
  pre-emergence activity against TRZAS in % (crop plant damage): 20%
Lolium rigidum (LOLRI) [3]; Lolium rigidum, pre-emergence, 504 h, application rate 80 g/ha, read-out: pre-emergence activity against LOLRI in %
  pest or weed control at 80 g/ha: 100%

## CC(=O)N1CSc2cc(Br)c(-c3ccccc3Cl)nc21 [Example I-055, 1-[6-bromo-5-(2-chlorophenyl)[1,3]thiazolo[4,5-b]pyridin-3(2H)-yl]ethanone]
Lolium rigidum (LOLRI) [4]; [6]
  pest or weed control at 1280 g/ha: 100%
Glycine max (GLXMA)
  percent crop plant damage at 320 g/ha: 20%
[1]
  pest or weed control at 320 g/ha: 80%
Veronica persica (VERPE); [7]
  pest or weed control at 320 g/ha: 90%
[2]; application rate 80 g/ha
  pre-emergence activity against TRZAS in % (crop plant damage): 0%
Lolium rigidum (LOLRI) [3]; [8]
  pest or weed control at 320 g/ha: 90%
Zea mays (ZEAMX)
  percent crop plant damage (phytotoxicity) on Zea mays, post-emergence at 320 g/ha: 0%

## CC(C)C(=O)N1C[S+]([O-])c2cc(Br)c(-c3ccccc3)nc21 (centres unmarked) [Example I-067]
Glycine max (GLXMA)
  percent crop plant damage at 320 g/ha: 10%
[2]; application rate 80 g/ha
  pre-emergence activity against TRZAS in % (crop plant damage): 10%
Lolium rigidum (LOLRI) [3]; [8]
  pest or weed control at 320 g/ha: 80%
Zea mays (ZEAMX)
  percent crop plant damage (phytotoxicity) on Zea mays, post-emergence at 320 g/ha: 0%

## CCS(=O)(=O)N1C[S+]([O-])c2cc(C)c(-c3ccccc3C)nc21 (centres unmarked) [Example I-074]
Lolium rigidum (LOLRI) [4]; Lolium rigidum, pre-emergence, 504 h, application rate 320 g/ha, read-out: pre-emergence activity against LOLRI in %
  pest or weed control at 320 g/ha: 100%
Glycine max (GLXMA)
  percent crop plant damage at 80 g/ha: 0%
Poa annua (POAAN); Poa annua, post-emergence, 504 h, application rate 320 g/ha, read-out: post-emergence activity against POAAN in %
  pest or weed control at 320 g/ha: 90%
Veronica persica (VERPE); [7]
  pest or weed control at 320 g/ha: 90%
[2]; application rate 80 g/ha
  pre-emergence activity against TRZAS in % (crop plant damage): 0%

## Cc1cc2c(nc1-c1ccccc1)N(C(=O)C1(C)CC(Cl)=NO1)CS2 (centres unmarked) [Example I-088]
Lolium rigidum (LOLRI) [4]; application rate 320 g/ha
  pre-emergence activity against LOLRI in %: 100%
Glycine max (GLXMA)
  post-emergence activity against GLXMA in %: 0%
Poa annua (POAAN); application rate 320 g/ha
  post-emergence activity against POAAN in %: 90%
[1]
  pre-emergence activity against ABUTH in %: 90%
Veronica persica (VERPE); application rate 1280 g/ha
  pre-emergence activity against VERPE in %: 90%
[2]; application rate 80 g/ha
  pre-emergence activity against TRZAS in % (crop plant damage): 0%
[5]
  post-emergence activity against ABUTH in %: 90%
Zea mays (ZEAMX)
  post-emergence activity against ZEAMX in %: 0%

## Cc1cc2c(nc1-c1cccc(C)c1F)NCS2 [Example I-113]
Lolium rigidum (LOLRI) [4]; application rate 1280 g/ha
  pre-emergence activity against LOLRI in %: 100%
Glycine max (GLXMA)
  post-emergence activity against GLXMA in %: 0%
Poa annua (POAAN); application rate 320 g/ha
  post-emergence activity against POAAN in %: 90%
Veronica persica (VERPE); application rate 1280 g/ha
  pre-emergence activity against VERPE in %: 90%
[2]; application rate 320 g/ha
  pre-emergence activity against TRZAS in % (crop plant damage): 10%
Lolium rigidum (LOLRI) [3]
  pre-emergence activity against LOLRI in %: 90%
Zea mays (ZEAMX)
  post-emergence activity against ZEAMX in %: 0%

## Cc1cc2c(nc1-c1ccccc1F)N(S(=O)(=O)Cc1ccc(F)cc1)CS2 [Example I-122]
Lolium rigidum (LOLRI) [4]; application rate 320 g/ha
  pre-emergence activity against LOLRI in %: 100%
Glycine max (GLXMA)
  post-emergence activity against GLXMA in %: 10%
Poa annua (POAAN); application rate 320 g/ha
  post-emergence activity against POAAN in %: 90%
Veronica persica (VERPE); application rate 1280 g/ha
  pre-emergence activity against VERPE in %: 90%
[2]; application rate 80 g/ha
  pre-emergence activity against TRZAS in % (crop plant damage): 10%
Lolium rigidum (LOLRI) [3]
  pre-emergence activity against LOLRI in %: 100%
[5]
  post-emergence activity against ABUTH in %: 80%
Zea mays (ZEAMX)
  post-emergence activity against ZEAMX in %: 0%

## CC1(C(=O)N2CSc3cc(Br)c(-c4ccccc4Cl)nc32)CC(Cl)=NO1 (centres unmarked) [Example I-141, [6-bromo-5-(2-chlorophenyl)[1,3]thiazolo[4,5-b]pyridin-3(2H)-yl](3-chloro-5-methyl-4,5-dihydro-1,2-oxazol-5-yl)methanone]
Lolium rigidum (LOLRI) [4]; [6]
  pest or weed control at 1280 g/ha: 100%
Glycine max (GLXMA)
  percent crop plant damage at 80 g/ha: 20%
Poa annua (POAAN); Poa annua, post-emergence, 504 h, application rate 1280 g/ha, read-out: post-emergence activity against POAAN in %
  pest or weed control at 1280 g/ha: 90%
[1]
  pest or weed control at 320 g/ha: 90%
Veronica persica (VERPE); Veronica persica, 504 h, application rate 1280 g/ha, read-out: pre-emergence activity against VERPE in %
  pest or weed control at 1280 g/ha: 90%
[2]; application rate 80 g/ha
  pre-emergence activity against TRZAS in % (crop plant damage): 0%
[5]; Abutilon theophrasti, post-emergence, 504 h, read-out: post-emergence activity against ABUTH in %
  pest or weed control at 320 g/ha: 80%
Zea mays (ZEAMX)
  percent crop plant damage (phytotoxicity) on Zea mays, post-emergence at 320 g/ha: 0%
